Assay results reported in ChEMBL document CHEMBL1201862, “PubChem BioAssay data set” (2004).
Blank lines part the entries; values can stand above or below the compound they belong to. Activity calls are given as the source filed them.

Columns and labels:
Genome polyprotein = Genome polyprotein (dengue virus type 2, UniProt P29990); test: flavivirus cap methylation enzyme inhibition – biochemical, confirmation dose response, primary screen (AID 588689); assay type: functional
[1] = target: T1, Corticotropin-releasing factor receptor 2/Corticotropin-releasing factor-binding protein (Homo sapiens, UniProt P24387+Q13324); test: activators of CRF receptor 2 with binding protein – uHTS hits, confirmation (AID 602473); assay type: functional; details: read-out: EC50_Mean
T1 sequence (Q13324 whole entry): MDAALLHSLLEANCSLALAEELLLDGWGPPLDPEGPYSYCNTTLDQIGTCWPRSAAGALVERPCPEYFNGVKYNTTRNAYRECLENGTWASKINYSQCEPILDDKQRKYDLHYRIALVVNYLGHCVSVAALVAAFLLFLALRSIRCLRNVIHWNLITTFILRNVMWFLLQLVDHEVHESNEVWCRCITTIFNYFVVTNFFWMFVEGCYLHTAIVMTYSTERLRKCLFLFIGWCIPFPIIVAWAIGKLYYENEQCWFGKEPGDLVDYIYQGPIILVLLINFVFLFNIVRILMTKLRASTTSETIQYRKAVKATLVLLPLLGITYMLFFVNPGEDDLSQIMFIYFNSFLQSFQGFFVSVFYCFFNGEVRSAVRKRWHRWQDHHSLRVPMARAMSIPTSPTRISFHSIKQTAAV
T1 sequence (P24387 whole entry): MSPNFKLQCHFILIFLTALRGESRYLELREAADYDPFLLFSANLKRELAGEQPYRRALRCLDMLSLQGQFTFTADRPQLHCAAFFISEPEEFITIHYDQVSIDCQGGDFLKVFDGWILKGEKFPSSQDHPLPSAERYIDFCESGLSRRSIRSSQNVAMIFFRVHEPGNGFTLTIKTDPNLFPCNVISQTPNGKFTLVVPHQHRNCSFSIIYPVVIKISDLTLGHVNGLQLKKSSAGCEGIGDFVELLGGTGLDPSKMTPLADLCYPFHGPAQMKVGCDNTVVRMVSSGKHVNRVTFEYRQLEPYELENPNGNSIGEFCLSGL

[2] = target: FAD-linked sulfhydryl oxidase ALR (Homo sapiens, UniProt P55789); test: ALR-catalysed DTT oxidation blockers – biochemical, H2O2 detection, luminescence, cherry-pick, dose response (AID 493248)
[3] = target: T2, Polyadenylate-binding protein 1 (Homo sapiens, UniProt P11940); test: MLLE binding blockers, Cy5 peptide tracer – biochemical, fluorescence polarization, Cy5-PAM2 peptide, secondary, miRNA deadenylation inhibitor project, dose response (AID 602260); assay type: functional; details: read-out: IC50_Mean
[4] = target: T2, Polyadenylate-binding protein 1; test: MLLE domain peptide-binding blockers, IC50 – biochemical, fluorescence polarization, FITC-PAM2 peptide, dose response (AID 602259); assay type: functional; details: read-out: IC50_Mean
Protein skinhead-1 = target: T3, Protein skinhead-1 (Caenorhabditis elegans, UniProt P34707); assay type: functional
T3 sequence (P34707 whole entry): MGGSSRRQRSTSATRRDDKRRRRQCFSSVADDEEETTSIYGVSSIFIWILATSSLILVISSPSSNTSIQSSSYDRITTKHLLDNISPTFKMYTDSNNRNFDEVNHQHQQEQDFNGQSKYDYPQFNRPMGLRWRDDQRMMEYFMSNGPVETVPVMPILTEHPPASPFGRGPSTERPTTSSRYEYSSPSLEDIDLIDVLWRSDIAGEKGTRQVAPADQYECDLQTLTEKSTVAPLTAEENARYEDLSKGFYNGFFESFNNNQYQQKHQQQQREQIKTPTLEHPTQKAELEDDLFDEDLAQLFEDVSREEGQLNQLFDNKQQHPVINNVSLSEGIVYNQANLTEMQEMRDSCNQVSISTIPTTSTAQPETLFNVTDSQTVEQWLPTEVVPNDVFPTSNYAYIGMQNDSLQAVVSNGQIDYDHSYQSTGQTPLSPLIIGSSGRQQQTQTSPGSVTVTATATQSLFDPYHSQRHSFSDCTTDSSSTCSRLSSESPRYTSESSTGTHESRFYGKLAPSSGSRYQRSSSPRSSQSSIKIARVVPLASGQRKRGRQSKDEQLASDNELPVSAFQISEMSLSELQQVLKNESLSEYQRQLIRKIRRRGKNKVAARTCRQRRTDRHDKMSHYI

[5] = NIH-3T3 fibroblast cytotoxicity, dose response, cytotoxicity control, cell-based, fluorescence, Alamar Blue, secondary assay (AID 2327); assay type: functional;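 note: NIH-3T3 mouse fibroblasts cultured with fluconazole at 8 µg/mL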
[6] = fluconazole-exposed Candida albicans growth modulators – fluorescence, retest, confirmation (AID 2467); assay type: functional, cell-based
[7] = reduction of Shn3 3'UTR-driven luciferase in osteoblasts – cell-based, Clone20 osteoblasts, firefly luciferase, cherry-picked, dose response (AID 624132); assay type: functional;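 note: firefly luciferase luminescence from reporter carrying the Shn3 3'UTR in osteoblasts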
[8] = loss of viability in HepG2 cells – cell-based, CellTiter-Glo, cherry-picked, cytotoxicity control for Shn3 inhibitor project, dose response (AID 624134); assay type: functional
[9] = non-specific 3'UTR reporter inhibition in Clone20-Shn3RL – cell-based, Renilla luciferase, cherry-picked, counter-screen for Shn3 inhibitor project, dose response (AID 624133); assay type: functional
[10] = viability of uninfected HEp-2 cells – cell-based, HTS, cytotoxicity control for RSV inhibitor project, dose response (AID 2410); assay type: functional; details: human respiratory syncytial virus
Cytochrome P450 2C19 = Cytochrome P450 2C19 (Homo sapiens, UniProt P33261); test: Cytochrome panel assay with activity outcomes. Panel member name: p450-cyp2c19 Compounds with AC50 equal or less than 10 uM are considered active; assay type: functional; details: read-out: AC50
Cytochrome P450 3A4 = Cytochrome P450 3A4 (Homo sapiens, UniProt P08684);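 note: CYP3A4 tested as one member of a cytochrome P450 panel screen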
Cytochrome P450 2C9 = Cytochrome P450 2C9 (Homo sapiens, UniProt P11712)
Chain of Cytochrome P450 2C9 (P11712 whole entry): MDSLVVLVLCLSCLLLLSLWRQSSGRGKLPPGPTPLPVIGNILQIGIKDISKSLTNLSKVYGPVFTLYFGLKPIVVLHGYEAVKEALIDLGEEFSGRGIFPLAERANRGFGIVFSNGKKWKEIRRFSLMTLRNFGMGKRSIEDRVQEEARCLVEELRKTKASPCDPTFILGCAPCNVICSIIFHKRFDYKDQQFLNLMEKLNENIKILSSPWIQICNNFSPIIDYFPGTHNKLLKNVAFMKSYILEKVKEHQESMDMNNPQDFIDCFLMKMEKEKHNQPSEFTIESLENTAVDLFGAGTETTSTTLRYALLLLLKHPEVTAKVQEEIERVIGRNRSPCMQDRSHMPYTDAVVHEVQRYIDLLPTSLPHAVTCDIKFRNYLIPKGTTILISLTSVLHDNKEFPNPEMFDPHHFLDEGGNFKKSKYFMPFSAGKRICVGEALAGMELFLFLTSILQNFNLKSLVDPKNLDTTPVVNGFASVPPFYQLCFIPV

T2 sequence (P11940 whole entry, the tested form may be a part): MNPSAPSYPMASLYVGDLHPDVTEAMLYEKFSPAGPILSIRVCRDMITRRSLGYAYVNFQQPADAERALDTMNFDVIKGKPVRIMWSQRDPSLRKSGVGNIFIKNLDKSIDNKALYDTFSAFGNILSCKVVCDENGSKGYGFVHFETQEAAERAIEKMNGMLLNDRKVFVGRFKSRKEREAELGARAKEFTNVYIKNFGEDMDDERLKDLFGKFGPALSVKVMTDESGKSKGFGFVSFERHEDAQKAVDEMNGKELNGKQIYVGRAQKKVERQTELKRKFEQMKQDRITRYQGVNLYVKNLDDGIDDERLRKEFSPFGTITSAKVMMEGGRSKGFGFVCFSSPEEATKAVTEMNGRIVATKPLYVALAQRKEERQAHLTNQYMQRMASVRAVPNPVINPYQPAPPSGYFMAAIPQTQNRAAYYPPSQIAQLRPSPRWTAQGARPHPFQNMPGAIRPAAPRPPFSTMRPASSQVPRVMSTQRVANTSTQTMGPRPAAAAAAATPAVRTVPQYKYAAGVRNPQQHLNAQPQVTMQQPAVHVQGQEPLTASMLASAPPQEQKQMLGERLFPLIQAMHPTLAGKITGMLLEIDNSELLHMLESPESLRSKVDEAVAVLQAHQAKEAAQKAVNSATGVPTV
Chain of Genome polyprotein (P29990 2492-3391 limits assumed): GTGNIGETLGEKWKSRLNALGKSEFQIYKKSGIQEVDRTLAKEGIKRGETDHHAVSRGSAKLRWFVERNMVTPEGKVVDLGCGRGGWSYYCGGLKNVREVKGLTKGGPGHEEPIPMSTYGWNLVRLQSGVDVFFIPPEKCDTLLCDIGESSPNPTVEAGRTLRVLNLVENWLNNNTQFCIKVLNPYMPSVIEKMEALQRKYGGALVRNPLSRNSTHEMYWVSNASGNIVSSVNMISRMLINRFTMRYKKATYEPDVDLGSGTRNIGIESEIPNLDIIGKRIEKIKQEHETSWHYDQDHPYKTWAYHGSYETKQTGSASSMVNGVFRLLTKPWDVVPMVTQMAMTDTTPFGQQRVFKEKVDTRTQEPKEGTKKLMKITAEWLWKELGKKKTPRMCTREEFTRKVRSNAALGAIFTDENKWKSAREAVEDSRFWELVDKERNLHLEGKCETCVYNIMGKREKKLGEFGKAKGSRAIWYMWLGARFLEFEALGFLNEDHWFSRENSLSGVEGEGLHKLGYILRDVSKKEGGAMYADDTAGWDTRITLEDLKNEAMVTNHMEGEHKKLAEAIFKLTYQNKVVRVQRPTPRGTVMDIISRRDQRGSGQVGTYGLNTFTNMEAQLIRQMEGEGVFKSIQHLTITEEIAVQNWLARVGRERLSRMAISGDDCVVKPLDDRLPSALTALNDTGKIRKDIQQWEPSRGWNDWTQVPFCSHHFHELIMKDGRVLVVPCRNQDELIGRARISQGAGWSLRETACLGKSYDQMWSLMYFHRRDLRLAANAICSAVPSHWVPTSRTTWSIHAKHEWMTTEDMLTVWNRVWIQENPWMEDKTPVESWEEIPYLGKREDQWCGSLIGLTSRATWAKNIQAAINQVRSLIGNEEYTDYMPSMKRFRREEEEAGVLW
Chain of FAD-linked sulfhydryl oxidase ALR (P55789 whole entry): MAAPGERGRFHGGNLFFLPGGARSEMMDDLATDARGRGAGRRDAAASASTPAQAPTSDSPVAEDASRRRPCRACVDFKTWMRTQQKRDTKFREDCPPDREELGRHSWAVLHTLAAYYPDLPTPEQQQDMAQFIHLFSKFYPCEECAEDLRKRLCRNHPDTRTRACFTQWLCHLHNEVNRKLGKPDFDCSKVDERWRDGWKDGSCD
Chain of Cytochrome P450 2C19 (P33261 whole entry): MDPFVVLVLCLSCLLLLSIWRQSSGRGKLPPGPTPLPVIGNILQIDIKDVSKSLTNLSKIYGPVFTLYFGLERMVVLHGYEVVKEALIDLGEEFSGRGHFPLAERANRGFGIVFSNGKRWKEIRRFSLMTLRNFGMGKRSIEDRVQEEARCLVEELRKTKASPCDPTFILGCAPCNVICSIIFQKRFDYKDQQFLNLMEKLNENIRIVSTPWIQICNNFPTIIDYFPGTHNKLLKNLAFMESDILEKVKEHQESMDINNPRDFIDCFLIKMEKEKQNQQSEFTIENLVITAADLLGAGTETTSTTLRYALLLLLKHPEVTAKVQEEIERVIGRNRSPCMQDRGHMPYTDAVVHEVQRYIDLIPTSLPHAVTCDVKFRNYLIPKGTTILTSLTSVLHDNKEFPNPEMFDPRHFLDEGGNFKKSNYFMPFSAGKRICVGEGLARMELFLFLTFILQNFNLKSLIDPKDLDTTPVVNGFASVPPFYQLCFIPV
Chain of Cytochrome P450 3A4 (P08684 whole entry): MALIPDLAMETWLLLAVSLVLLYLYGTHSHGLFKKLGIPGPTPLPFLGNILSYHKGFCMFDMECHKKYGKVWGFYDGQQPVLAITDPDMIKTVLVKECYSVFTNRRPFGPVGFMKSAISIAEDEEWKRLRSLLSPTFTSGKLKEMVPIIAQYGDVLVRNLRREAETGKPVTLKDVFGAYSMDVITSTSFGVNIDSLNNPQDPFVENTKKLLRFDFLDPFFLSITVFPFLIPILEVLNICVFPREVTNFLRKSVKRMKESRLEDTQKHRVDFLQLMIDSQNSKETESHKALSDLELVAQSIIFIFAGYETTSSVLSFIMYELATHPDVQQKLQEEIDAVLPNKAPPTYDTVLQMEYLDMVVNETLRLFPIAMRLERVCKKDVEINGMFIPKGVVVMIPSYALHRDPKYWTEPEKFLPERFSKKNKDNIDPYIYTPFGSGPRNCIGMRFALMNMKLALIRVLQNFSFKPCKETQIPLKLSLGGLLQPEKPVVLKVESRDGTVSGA

- IC50 (Genome polyprotein): 86.3 µM (active)
- EC50 [1]: 22.3 µM (active)
SMILES: CC(=O)Oc1oc(-c2ccccc2)nc1/C=N/c1ccccc1

- AC50 [2]: 27.7 µM (active)
SMILES: CC(C)c1ccc(NC2CCCN(C(=O)C3=NN(C)C(=O)CC3)C2)cc1 (stereo unspecified)

- IC50 [3]: > 66 µM (inactive)
- IC50 [4]: > 66 µM (inactive)
SMILES: O=S(=O)(NC(=S)c1ccccc1)c1ccccc1

SMILES: O=C(CN1C2CCC1CC(NC(=O)C1CC1)C2)NCc1ccccc1 (stereo unspecified)
- IC50 (Protein skinhead-1): > 100 µM (inactive)

- IC50 (Protein skinhead-1): > 100 µM (inactive)
SMILES: O=C(Nc1cccc(Oc2ccccc2)c1)C1Cc2c(-c3ccc4c(c3)OCO4)ccnc2O1 (stereo unspecified)

- IC50 [3]: > 66 µM (inactive)
- IC50 [4]: > 66 µM (inactive)
- IC50 (Protein skinhead-1): > 100 µM (inactive)
SMILES: Cc1cc2cc(CN=C(S)Nc3ccc(OC(F)F)cc3)ccc2n1C

SMILES: Cc1cccc(NC(=O)CSC(N)=O)c1C
- EC50 [5]: > 150 µM (inactive)
- EC50 [6]: > 38 µM (not active)
- IC50 [3]: > 66 µM (inactive)
- IC50 [4]: > 66 µM (inactive)

SMILES: Cc1cc(C)c(S(=O)(=O)N2Cc3ccccc3-n3nncc3C2)c(C)c1
- AC50 [7]: 4.36 µM (active)
- AC50 [8]: 49.7 µM (active)
- AC50 [9]: 5.53 µM (active)

- IC50 (Genome polyprotein): 27.7 µM (active)
SMILES: COc1ccc(C(C2C(=O)CC(C)(C)CC2=O)C2C(=O)CC(C)(C)CC2=O)cc1COCC(F)(F)F

- IC50 [3]: > 66 µM (inactive)
- IC50 [4]: > 66 µM (inactive)
SMILES: CCOC(=O)c1c(NC(=O)c2ccccc2)sc2c1CCc1ccccc1-2

- IC50 [3]: > 66 µM (inactive)
- IC50 [4]: > 66 µM (inactive)
SMILES: O=C(NC(=S)Nc1ccc2c(c1)OCCO2)c1cccc(Br)c1
- CC50 [10]: 34.8 µM (active)

- AC50 [2]: 0.887 µM (active)
SMILES: COc1cc(/C=N/Nc2ccccc2)ccc1O

- IC50 (Protein skinhead-1): > 100 µM (inactive)
SMILES: O=C(Nc1ccc(Cl)cc1)Nc1ccc(Br)cn1

- IC50 (Protein skinhead-1): < 3.13 µM (active)
SMILES: O=C(NCc1ccc(F)c(F)c1)c1ccc(-c2ccc(F)c(F)c2)c2ccoc12

- AC50 (Cytochrome P450 2C19): 39.8 µM (inconclusive)
- AC50 (Cytochrome P450 3A4): 25.1 µM (inconclusive)
SMILES: NC(=O)c1ccc(N2CCCCC2)c(N2C(=O)C3CC=CCC3C2=O)c1 (stereo unspecified)

- IC50 (Genome polyprotein): > 100 µM (active)
SMILES: C/C(=N/Nc1ccc(C(=O)O)cc1)c1ccc(O)c(O)c1O

SMILES: CCOP(=O)(CN(CC)CCNP(=O)(OCC)OCC)OCC
- AC50 (Cytochrome P450 2C19): 39.8 µM (inconclusive)
- AC50 (Cytochrome P450 2C9): 0.126 µM (inconclusive)
